According to patent US12616753B2, “HSP70 inhibitors and methods of using same” (THE WISTAR INSTITUTE, priority 2020, dated 2026):

Columns and labels:
[1] = system: MC38 cells; assay: Anti-tumor vaccination study in C57BL/6 mice; assay type: in vivo, mouse
Protocol: FIG. 25A: C57Bl/6 mice were injected with either PBS or AP-4-139B pre-treated MC38 cells into the left flank. 10 days later, the same mice were injected with untreated MC38 cells in the right flank. […] Log rank test p<0.0001. FIG. 25B: Tumor growth measured in mice in FIG. 25A over 25 days. n=15 mice per group. Wilcox rank-sum test p<0.0001.
For in vivo metastasis assays, 8-10 week old male C57Bl/6 mice were injected with 4×10^5 MC38 cells. Mice were then treated with either vehicle or 10 mg/kg AP-4-139B every 48 hours for 3 weeks. At the end of the study, mice were euthanized, lungs were harvested and fixed in formalin for analysis of lung tumor nodules by H&E. For anti-tumor vaccination studies, MC38 cells were treated with 10 μM AP-4-139B for 48 h, resulting in approximately 20% cell death (as assessed by Trypan Blue staining). 2×10^6 pre-treated MC38 cells or PBS was inoculated subcutaneously into the left flank of 8-10 week old male C57BL/6 mice. Ten days later, mice were challenged on the right flank with 5×10^5 live MC38 cells, and tumor growth and incidence were monitored 3 times per week. The absence of tumors was scored as an indication for efficient antitumor vaccination.

[2] = system: 1205LU melanoma xenografts; assay: 1205Lu melanoma xenograft in NSG mice; assay type: in vivo, mouse; conditions: i.p. twice per week
Protocol: 1205LU melanoma xenografts in NSG mice were established. When tumors reached 100 mm^3 in volume, mice were treated twice per week with the i.p. doses of AP-4-139B indicated.
AP-4-139B was tested as a single agent in a 1205Lu melanoma xenograph in mice. 1205LU melanoma xenografts in NSG mice were established. When tumors reached 100 mm^3 in volume, mice were treated twice per week with the i.p. doses of AP-4-139B indicated.

[3] = target: N-terminal HIS tagged HSP70 (Homo sapiens, UniProt P0DMV8); assay: Small molecule binding to HSP70 using SPR (Biacore T200)
Protocol: SPR experiments were conducted using the Biacore T200. Approximately 20,000 RU of N-terminal HIS tagged HSP70 was immobilized on a multi-dentate NTA derivatized linear carboxylate sensor chip (NICH1500M, Xantec Bioanalytics). The running buffer was PBS containing 2 mM MgCl2, 0.05% Tween, and 5% DMSO. Test compounds were diluted at 20× final concentration in 100% DMSO and then diluted into running buffer without DMSO so that the DMSO concentrations in both the sample and the running buffer were similar. Flow rate was 30 μL/min, contact time for each sample concentration was 30 seconds, followed by a 60 second dissociation time. Data were analyzed using the Biacore evaluation software and the resulting sensograms exported and re-plotted in GraphPad Prism.
The next studies sought to determine whether AP-4-139B interacts directly with HSP70. To accomplish this, full-length His-tagged human HSP70 was used, and it was immobilized on a high affinity poly-Ni-NTA sensor chip for surface plasmon resonance experiments on a Biacore T200. This HSP70-loaded chip was incubated with AP-4-139B or the negative control VY-3-277. As a positive control the adenosine-derived HSP70 inhibitor Ver-155008 was used (Massey et al., Cancer Chemother Pharmacol. 2010 August; 66(3):535-45).

[4] = system: CRC cell lines (SW620, HT-29, HCT 116+/−p53, RKO, and LS411N); assay: Alamar Blue cell viability assay, human CRC panel; assay type: cell-based; conditions: Homo sapiens; 72 hours; read-out: IC50, cytotoxicity in all CRC cell lines
Protocol: FIGS. 4A-4F show AP-4-139B is efficacious as a single agent against human CRC in vitro and in vivo. FIG. 4A: Three CRC cell lines (HT-29, LS411N, and SW620) were treated with 10 μM of PET-16 or AP-4-139B for 48 hours. Cell were then subjected to viability assays using Trypan Blue exclusion. *** p<0.001. […] FIGS. 4B-4C: A panel of six CRC cell lines (SW620, HT-29, HCT 116+/−p53, RKO, and LS411N) were plated at a density of 1,000 cells per well in 96-well plates. The next day, cells were treated with the indicated inhibitors for 72 hours. Cells were then subjected to the Alamar Blue cell viability assays. Shown are representative IC50 values of an average of six technical replicates and two biological replicates. FIG. 4D: 2.5×10^6 HT-29 cells were injected subcutaneously into the right flank of NSG mice. Once tumors reached an approximate volume of 100 mm^3, mice were separated randomly into two groups: control vs. AP-4-139B. Mice were treated with 12.5 mg/kg AP-4-139B three times a week. All mice were euthanized 22 days after the start of treatment. Tumor volumes were recorded using digital calipers and using the formula v=length×width^2×0.52. *** p<0.001. n=10 mice per group. FIG. 4E: Immunohistochemistry (IHC) analysis of HT-29 xenograft tumors treated with AP-4-139B. Shown are representative images (4-6 random fields of view per condition) of Ki67 (proliferation) and Cleaved Lamin A (cell death). n=4 mice per group. Scale bar=100 μm. Respective IgG antibody was used as the negative control.

[5] = system: MC38 cells; assay: Membrane associated calreticulin analysis by flow cytometry; assay type: cell-based, mouse; conditions: 24 hours
Protocol: FIG. 6D: MC38 cells were treated with 5 μM AP-4-139B for 24 hours and subjected to flow cytometry, using Alexa488-tagged calreticulin antibody. *** p<0.001, n=4 biological replicates performed in duplicate. FIG. 6E: MC38 cells were treated with increasing concentrations of AP-4-139B, G-TPP, 17-AAG or Metformin for 3 hours and then assayed for extracellular ATP release. Three independent cultures were assayed for each treatment, and DMSO-treated cells were used as internal controls. Error bars represent standard deviation (SD).
Flow cytometry was used to detect calreticulin localization after exposure to Doxorubicin (positive control) or AP-4-139B. MC38 cells were plated at a density of 3×10^5 cells per well in 6-well plates. The following day, cells were treated with 1 μM of doxorubicin, 15 μM of AP-4-139B (MC38), or 5 μM of AP-4-139B (CT26). After 24 hours, cells were collected and stained with anti-CRT antibody (ab196158) (Abcam) diluted in a solution of 1% FBS in PBS for 30 minutes on ice in the dark. Cells were then washed with PBS and stained with DAPI (1 μg/mL) for 5 minutes prior to analysis. Samples were analyzed using a FACSCelesta (Becton Dickinson) flow cytometer. […] Fluorescent intensity of DAPI negative cells was measured and at least 10,000 events in the analysis gate were obtained.

[6] = system: CCD 841 CoN cells; assay: Trypan Blue exclusion viability assay, normal colon epithelial cells; assay type: cell-based; conditions: 10 μM, 48 hours
[7] = Half-life of PET-16 in plasma

Chain of N-terminal HIS tagged HSP70 (P0DMV8 whole entry): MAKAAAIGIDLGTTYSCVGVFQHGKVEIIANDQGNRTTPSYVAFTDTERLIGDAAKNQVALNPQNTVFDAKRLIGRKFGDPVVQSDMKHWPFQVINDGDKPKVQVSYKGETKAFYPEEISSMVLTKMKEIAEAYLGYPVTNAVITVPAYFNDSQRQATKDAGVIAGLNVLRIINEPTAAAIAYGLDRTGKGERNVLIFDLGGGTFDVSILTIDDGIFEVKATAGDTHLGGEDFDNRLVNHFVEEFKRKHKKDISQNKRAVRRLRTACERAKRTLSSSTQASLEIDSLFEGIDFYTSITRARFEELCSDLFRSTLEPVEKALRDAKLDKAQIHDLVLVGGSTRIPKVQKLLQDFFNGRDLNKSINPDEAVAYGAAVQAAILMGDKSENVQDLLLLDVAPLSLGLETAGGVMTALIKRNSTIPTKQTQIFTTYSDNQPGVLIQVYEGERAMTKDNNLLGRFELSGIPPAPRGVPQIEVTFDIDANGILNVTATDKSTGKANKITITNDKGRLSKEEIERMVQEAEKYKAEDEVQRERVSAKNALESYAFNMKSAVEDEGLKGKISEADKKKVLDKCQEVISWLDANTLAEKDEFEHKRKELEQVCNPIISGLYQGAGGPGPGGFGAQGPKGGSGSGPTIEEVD

| Compound | tumor size in vaccine-treated mice ([1]; over 25 days) | mice that developed tumors on the right flank ([1]; vaccinated with pre-treated MC38 cells, control 15 of 15) | tumor growth, 1205Lu xenograft [2] | tumor weight, 1205Lu xenograft [2] | binding to sensor chips loaded with HSP70 [3] | IC50 [4] | calreticulin mobilization to the plasma membrane [5] | toxicity to normal colon epithelial cells [6] | half-life [7] |
| --- | --- | --- | --- | --- | --- | --- | --- | --- | --- |
| c1ccc(-c2cn3nc(CCCCCC[P+](c4ccccc4)(c4ccccc4)c4ccccc4)sc3n2)cc1 [AP-4-139B, Triphenyl(6-(6-phenylimidazo[2,1-b][1,3,4]thiadiazol-2-yl)hexyl)phosphonium bromide] | markedly reduced compared with control | 3 of 15 | inhibit tumor growth | reduce tumor weight | reproducibly bound in concentration-dependent manner | 1500 to 3000 nM | calreticulin mobilization to the plasma membrane | far less sensitive |  |
| C(#C[P+](c1ccccc1)(c1ccccc1)c1ccccc1)c1ccccc1 [PET-16, Triphenyl(phenylethynyl)phosphonium bromide, reference compound] |  |  |  |  |  |  |  |  | < 30 min |
